Inconclusive results and toxic doses are left out. How the source made its calls: active means survival T/C of 150% or more; inactive means T/C below 125% in these data. Residues, ends and D or L forms follow the SMILES beside them. *: point of attachment. Cbz = O=C(OCc1ccccc1)*; OBn = c1ccc(CO*)cc1
Test system: CD2F1 mice, L1210 leukemia ip, survival T/C
Experiment: NCI In Vivo Anticancer Drug Screen. Data for tumor model L1210 Leukemia (intraperitoneal) in CD2F1 (CDF1) mice
Settings: higher = longer survival
In short: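 Transplantable tumor in mice; compound-treated vs vehicle-treated groups. Read-out = treated/control ratio of the measured endpoint.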

[1] = endpoint: mean survival time, dose: 100.0 mg/kg/injection, schedule: Q01DX009 (ip), vehicle: saline with Tween-80
[2] = endpoint: mean survival time, dose: 200.0 mg/kg/injection, schedule: Q01DX009 (ip), vehicle: saline with Tween-80
[3] = endpoint: mean survival time, dose: 400.0 mg/kg/injection, schedule: Q01DX009 (ip), vehicle: saline with Tween-80
[4] = endpoint: mean survival time, dose: 100.0 mg/kg/injection, schedule: Q04DX002 (ip), vehicle: saline with Tween-80
[5] = endpoint: mean survival time, dose: 200.0 mg/kg/injection, schedule: Q04DX002 (ip), vehicle: saline with Tween-80
[6] = endpoint: mean survival time, dose: 400.0 mg/kg/injection, schedule: Q04DX002 (ip), vehicle: saline with Tween-80
[7] = endpoint: mean survival time, dose: 100.0 mg/kg/injection, schedule: Q04DX003 (ip), vehicle: saline with Tween-80
[8] = endpoint: mean survival time, dose: 200.0 mg/kg/injection, schedule: Q04DX003 (ip), vehicle: saline with Tween-80
[9] = endpoint: mean survival time, dose: 400.0 mg/kg/injection, schedule: Q04DX003 (ip), vehicle: saline with Tween-80

Measured: T/C

N#CC(CN1CCOCC1)[N+](=O)[O-] (configuration not stated)
inactive: [1] 95 % of control | [2] 100 % of control | [3] 118 % of control

CC(C)c1nn[nH]n1
inactive: endpoint: median survival time, dose: 50.0 mg/kg/injection, schedule: Q01DX009 (ip), vehicle: saline + alcohol 93 % of control | endpoint: median survival time, dose: 100.0 mg/kg/injection, schedule: Q01DX009 (ip), vehicle: saline + alcohol 91 % of control | endpoint: median survival time, dose: 200.0 mg/kg/injection, schedule: Q01DX009 (ip), vehicle: saline + alcohol 100 % of control | endpoint: median survival time, dose: 400.0 mg/kg/injection, schedule: Q01DX009 (ip), vehicle: saline + alcohol 93 % of control

CCOc1ccc(/C=C2N=C(/C=C/c3ccccc3)OC\2=O)cc1
inactive: [4] 91 % of control | [5] 95 % of control | [6] 91 % of control

O=C1c2ccccc2C(=O)N1CCCl
inactive: [1] 91 % of control | [2] 91 % of control | [3] 92 % of control

O=C(O)/C=C\C(=O)OCc1ccc(Cl)cc1Cl
inactive: [1] 106 % of control | [7] 91 % of control | [8] 101 % of control | [9] 95 % of control

CCC(CCc1ccc(OC)c(OC)c1)C(=O)O (configuration not stated)
inactive: [4] 109 % of control | [5] 102 % of control | [6] 98 % of control

C=Cc1ccc(OC2OC(COC(C)=O)C(OC3OC(COC(C)=O)C(OC(C)=O)C(OC(C)=O)C3OC(C)=O)C(OC(C)=O)C2OC(C)=O)cc1 (configuration not stated)
inactive: endpoint: mean survival time, dose: 75.0 mg/kg/injection, schedule: Q01DX001 (ip), vehicle: other 92 % of control | endpoint: mean survival time, dose: 150.0 mg/kg/injection, schedule: Q01DX001 (ip), vehicle: other 95 % of control | endpoint: mean survival time, dose: 300.0 mg/kg/injection, schedule: Q01DX001 (ip), vehicle: other 92 % of control

CC(C)(CO)NC(=O)CC1CCCCC1
inactive: endpoint: mean survival time, dose: 100.0 mg/kg/injection, schedule: Q01DX001 (ip), vehicle: saline with Tween-80 103 % of control | endpoint: mean survival time, dose: 200.0 mg/kg/injection, schedule: Q01DX001 (ip), vehicle: saline with Tween-80 103 % of control | endpoint: mean survival time, dose: 400.0 mg/kg/injection, schedule: Q01DX001 (ip), vehicle: saline with Tween-80 100 % of control

CCCCC=C1CC(C)CCC(C)C1 (configuration not stated)
inactive: endpoint: mean survival time, dose: 100.0 mg/kg/injection, schedule: Q04DX003 (ip), vehicle: saline 101 % of control | endpoint: mean survival time, dose: 200.0 mg/kg/injection, schedule: Q04DX003 (ip), vehicle: saline 104 % of control | endpoint: mean survival time, dose: 400.0 mg/kg/injection, schedule: Q04DX003 (ip), vehicle: saline 104 % of control

CC(C)(C)OC(=O)NC(=O)CCC(N)C(=O)O (configuration not stated)
inactive: [7] 94 % of control | [8] 91 % of control | [9] 92 % of control

CCCCCCOS(=O)OCC(Cl)COC (configuration not stated)
inactive: [1] 97 % of control | [2] 94 % of control

NC(=S)N/N=C1\CC2CC1C1C=CCC21 (configuration not stated)
inactive: [4] 111 % of control | [5] 98 % of control

OC1C(COCc2ccccc2)OC(n2cccc2)C1O (configuration not stated)
inactive: endpoint: median survival time, dose: 8.75 mg/kg/injection, schedule: Q01DX005 (ip), vehicle: distilled water + Tween-80 98 % of control | endpoint: median survival time, dose: 17.5 mg/kg/injection, schedule: Q01DX005 (ip), vehicle: distilled water + Tween-80 101 % of control | endpoint: median survival time, dose: 35.0 mg/kg/injection, schedule: Q01DX005 (ip), vehicle: distilled water + Tween-80 104 % of control | endpoint: median survival time, dose: 70.0 mg/kg/injection, schedule: Q01DX005 (ip), vehicle: distilled water + Tween-80 112 % of control | endpoint: median survival time, dose: 140.0 mg/kg/injection, schedule: Q01DX005 (ip), vehicle: distilled water + Tween-80 98 % of control

CC(C(=O)c1ccccc1)C(c1ccccc1)P(=O)(c1ccccc1)c1ccccc1 (configuration not stated)
inactive: [1] 102 % of control | [3] 104 % of control

O=C(CNC(=O)OCc1ccccc1)NCC(=O)OCc1ccccc1 (Cbz-Gly-Gly-OBn)
inactive: [1] 93 % of control | [7] 96 % of control | [2] 92 % of control | [8] 93 % of control | [3] 89 % of control | [9] 93 % of control

Cc1ccc(-n2c(N)cc(=O)[nH]c2=S)nc1
inactive: [7] 95 % of control | [8] 100 % of control | [9] 95 % of control

O=C(c1ccc(-c2ccccc2)cc1)C(Br)C(Br)c1ccccc1 (configuration not stated)
inactive: endpoint: mean survival time, dose: 12.5 mg/kg/injection, schedule: Q01DX009 (ip), vehicle: water 95 % of control | endpoint: mean survival time, dose: 50.0 mg/kg/injection, schedule: Q01DX009 (ip), vehicle: water 90 % of control | endpoint: mean survival time, dose: 100.0 mg/kg/injection, schedule: Q01DX009 (ip), vehicle: water 90 % of control | endpoint: mean survival time, dose: 200.0 mg/kg/injection, schedule: Q01DX009 (ip), vehicle: water 102 % of control

CC1(OC(=O)c2ccccc2)CC(C)(C)[N+]([O-])=N1 (configuration not stated)
inactive: endpoint: mean survival time, dose: 25.0 mg/kg/injection, schedule: Q01DX009 (ip), vehicle: Klucel (hydroxypropylcellulose) (HPC) 96 % of control | endpoint: mean survival time, dose: 50.0 mg/kg/injection, schedule: Q01DX009 (ip), vehicle: Klucel (hydroxypropylcellulose) (HPC) 96 % of control | endpoint: mean survival time, dose: 100.0 mg/kg/injection, schedule: Q01DX009 (ip), vehicle: Klucel (hydroxypropylcellulose) (HPC) 100 % of control | endpoint: mean survival time, dose: 200.0 mg/kg/injection, schedule: Q01DX009 (ip), vehicle: Klucel (hydroxypropylcellulose) (HPC) 91 % of control

O=S(=O)(F)c1cccc(Cl)c1C[P+](c1ccccc1)(c1ccccc1)c1ccccc1
inactive: endpoint: mean survival time, dose: 12.5 mg/kg/injection, schedule: Q01DX001 (ip), vehicle: Klucel (hydroxypropylcellulose) (HPC) 103 % of control | endpoint: mean survival time, dose: 25.0 mg/kg/injection, schedule: Q01DX001 (ip), vehicle: Klucel (hydroxypropylcellulose) (HPC) 115 % of control

CC(C)(C)C1CC[N-]CC1.CC(C)(C)C1CC[N-]CC1.O=[N+]([O-])O.O=[N+]([O-])O.[Pt+2]
inactive: endpoint: mean survival time, dose: 50.0 mg/kg/injection, schedule: Q04DX002 (ip), vehicle: saline with Tween-80 98 % of control | [4] 98 % of control | [5] 95 % of control

CCOC(=O)c1cnc2c(cnn2CC)c1N1CCCCC1
inactive: endpoint: mean survival time, dose: 100.0 mg/kg/injection, schedule: Q04DX003 (ip), vehicle: Klucel (hydroxypropylcellulose) (HPC) 89 % of control | endpoint: mean survival time, dose: 200.0 mg/kg/injection, schedule: Q04DX003 (ip), vehicle: Klucel (hydroxypropylcellulose) (HPC) 97 % of control
